# Experimental data reported in patent US9890432B2, “PRDM14 and FAM19A4, molecular diagnostic markers for HPV-induced invasive cancers and their high-grade precursor lesions” (SELF-SCREEN B.V., priority 2013, dated 2018).
# “Also recorded” adds a separate entry of the source.
# Tested on: PRDM14 mRNA expression in SiHa cervical cancer cells
# Assay: PRDM14 mRNA expression in SiHa cells after treatment with a DNA methylation inhibitor
# Format: cell-based, human
# Conditions: DAC at 0.2 μM and 5 μM, controls PBS and ethanol
# Method: Treatment of SiHa cervical cancer cells was performed with the methylation inhibitor 2′-deoxy-5′azacytidine (5′-aza or DAC) at 0.2 μM and 5 μM concentration. Other treatments were PBS and ethanol (EtOH). All treatments were in duplicate. Controls are human reference RNA and a -RT control (without reverse transcriptase added to the cDNA reaction mixture).
smiles,measurement,value
"Nc1ncn([C@H]2C[C@H](O)[C@@H](CO)O2)c(=O)n1 [DAC, 5-aza-2 deoxycytidine]",PRDM14 mRNA expression,upregulated; also recorded: upregulation
